Where two headings read alike, the source gives them in different places.
Tests used:
C. albicans ATCC 90028 = type: cell-based, Candida albicans
C. auris = type: cell-based, Candida auris; conditions: OD595, 24 h
C. glabrata ATCC 90030 = type: cell-based, Candida glabrata; conditions: OD595, 24 h
C. krusei = type: cell-based, Candida krusei; conditions: OD595, 24 h
C. parapsilosis = type: cell-based, Candida parapsilosis; conditions: OD595, 24 h
C. tropicalis ATCC 750 = type: cell-based, Candida tropicalis; conditions: OD595, 24 h
F. graminearum PH-1 = type: cell-based, Fusarium graminearum; conditions: ½ PDB, no added NaCl; 5 × 10^4 spores/mL; OD595, 24 h
E. coli [1] = type: cell-based, Escherichia coli; conditions: strain TOP10, OD595, 24 h
S. aureus ATCC 9144 = type: cell-based, Staphylococcus aureus; conditions: ½ PDB adjusted to pH 7, no added NaCl; OD595, 24 h
B. subtilis = type: cell-based, Bacillus subtilis; conditions: ½ PDB adjusted to pH 7, no added NaCl, OD595, 24 h
P. aeruginosa PAO1 = type: cell-based, Pseudomonas aeruginosa; conditions: ½ PDB adjusted to pH 7, no added NaCl; OD595, 24 h
[2] = tested on: E. coli, B. subtilis, S. aureus, and P. aeruginosa; type: cell-based; conditions: ½ PDB, pH 7; range over four bacteria
C. albicans biofilms = experiment: Anti-biofilm assay, Presto Blue viability; type: cell-based, Candida albicans; conditions: 24 h biofilm, 24 h treatment at 37°C in RPMI (132.1 mM sodium), twofold dilution from 300 μg/mL
E. coli [3] = conditions: assays conducted in LB; ref van der Weerden et al., 2008; cited from earlier work
Excerpt: (§1) The antibacterial activity of ZmD32 and NaD1 adds to a growing list of antibacterial defensins ([Sathoff and Samac, 2018]; [Sathoff et al., 2018]; [Velivelli et al., 2018]), a protein family that is best known for antifungal activity ([van der Weerden and Anderson, 2013]; [van der Weerden et al., 2013]; [Parisi et al., 2018]). The lack of reported antibacterial activity for plant defensins likely reflects the medium used for antibacterial assays, Here the ½ PDB pH 7 medium has a NaCl concentration of less than 10 mM. This concentration is considerably lower than growth media often used in anti ...

S. aureus = conditions: assays conducted in LB; ref van der Weerden et al., 2008; cited from earlier work
Excerpt: as §1

[4] = tested on: prostate cancer (PC3) cells; experiment: MTT cell viability assay, PC3; conditions: 48 h, twofold dilution series from 50 μM down, three independent replicates
Procedure: (§2) Leukemia monocyte lymphoma (U937) cells and prostate cancer (PC3) cells were cultured in RPMI-1640 medium (Sigma) buffered to pH 7.2 with HEPES and supplemented with 5–10% (v/v) fetal calf serum (FCS), 100 U/mL penicillin (Sigma) and 100 μg/mL streptomycin (Invitrogen). […] All cell lines were cultured at 37°C in a humidified atmosphere containing 5% CO2. Cell viability assays were performed using an MTT assay as described in ([Poon et al., 2014]). […] IC50 values were determined using GraphPad Prism 5 (GraphPad Software, CA, United States).

[5] = tested on: Leukemia monocyte lymphoma (U937) cells; experiment: MTT cell viability assay, U937; conditions: 48 h, twofold dilution series from 50 μM down, three independent replicates
Procedure: as §2

[6] = Membrane lipid binding assay (protein-lipid overlay); conditions: detected with α-NaD2 (ZmD32) or α-NaD1 (NaD1) antibody; representative of three independent experiments
Procedure: Lipid binding assays were performed using Membrane Lipid Strips (Echelon Biosciences) as described in ([Poon et al., 2014]). ZmD32 binding to the lipids on the strips was detected using a polyclonal antibody generated in rabbits to the defensin NaD2 with which it shares 78.7% amino acid sequence identity ([Dracatos et al., 2014]). […] Lipid binding of NaD1 was performed as described in ([Poon et al., 2014]).

[7] = ½ PDB + 100 mM NaCl, read-out: NaCl IC50
[8] = ½ PDB, no added NaCl, read-out: IC50

Procedure for human red blood cells: Human blood was obtained from the Australian Red Cross Blood Service (Melbourne, VIC, Australia) under Material Supply Agreement 14-11VIC-03. Hemolytic activity of defensins was assessed as described in ([Evans et al., 2013]). The degree of red blood cell (RBC) lysis was measured by absorbance at 412 nm, relative to water-lysed RBCs.

NaD1: well-characterized antifungal plant defensin from Nicotiana alata floral tissues or recombinant from Pichia pastoris; used as standard (RECKTESNTFPGICITKPPCRKACISEKFTDGHCSKILRRCLCTKPC; UniProt Q8GTM0 26-72, looked up)
Activity against C. albicans in the presence of divalent metal salts (C. albicans ATCC 90028; 5 mM MgCl2 or 2 mM CaCl2, data not shown): lost activity | IC50 (C. albicans ATCC 90028; read-out: IC50): 1600 ± 400 nM | IC50 (C. albicans ATCC 90028; read-out: NaCl IC50): > 10000 nM | IC50 (C. auris; [7]): > 10000 nM | IC50 (C. auris; [8]): 2900 ± 500 nM | IC50 (C. glabrata ATCC 90030; [7]): > 10000 nM | IC50 (C. glabrata ATCC 90030; [8]): 2800 ± 1000 nM | IC50 (C. krusei; [7]): > 10000 nM | IC50 (C. krusei; [8]): 1200 ± 400 nM | IC50 (C. parapsilosis; [7]): 3400 ± 1200 nM | IC50 (C. parapsilosis; [8]): 1200 ± 300 nM | IC50 (C. tropicalis ATCC 750; [7]): 1300 ± 500 nM | IC50 (C. tropicalis ATCC 750; [8]): 400 ± 100 nM | IC50 (F. graminearum PH-1): 1000 ± 500 nM | IC50 (E. coli [1]; ½ PDB adjusted to pH 7 + 100 mM NaCl, read-out: NaCl IC50): > 10000 nM | IC50 (E. coli [1]; ½ PDB adjusted to pH 7, no added NaCl, read-out: IC50): 4600 ± 1600 nM | IC50 (S. aureus ATCC 9144): 5000 ± 500 nM | IC50 (B. subtilis): 2000 ± 200 nM | IC50 (P. aeruginosa PAO1): 4300 ± 300 nM | IC50 [2]: 2000 to 5000 nM | Activity against established C. albicans biofilms (C. albicans biofilms): no activity | Red blood cells lysed at concentrations up to 50 μM (human red blood cells): ≤ 2% | Activity against E. coli (E. coli [3]): no activity | Activity against S. aureus (S. aureus): no activity | Effect on viability of PC3 cells [4]: decreased viability of all three cell lines at much lower concentrations than ZmD32 | Effect on viability of U937 cells [5]: decreased viability of all three cell lines at much lower concentrations than ZmD32 | Lipids bound on membrane lipid strip [6]: bound preferentially to phosphatidylinositol-4,5-bisphosphate [PI(4,5)P2] but also bound to phosphatidic acid (PA) and cardiolipin
